Measured values published in patent publication US20060234980A1, “Antiinflammatory agent, agent for preventing/ameliorating allergic diseases and functional food” (priority 2002, published 2006).

Tested on: oral sensitization model of BALB/c mouse
Experiment: Oral sensitization model with OVA, oligosaccharide-added feeds, serum antigen-specific antibody titer (ELISA)
Assay type: in vivo
Settings: 5% (w/w) in feed
From the text: An oral sensitization model of BALB/c mouse using ovalbumin (OVA) as a model antigen was produced, and influences exerted by various oligosaccharides added to feed on serum antibody titer were compared. Until initiation of the experiment, 12-week old male BALM/c mice were allowed to freely take AIN-93G as a base feed (α-corn starch, 529.5 g/kg; casein, 200 g/kg; sucrose, 100 g/kg; soy bean oil, 70 g/kg; cellulose, 50 g/kg; mineral mixing, 35 g/kg; vitamin mixing, 10 g/kg; L-cystine, 3 g/kg; choline bitartarate, 2.5 g/kg) . After pre-breeding for 1 week, an oligosaccahide no-[…] (base seed) group, and feeds obtained by substituting 5% (w/w) of the base feed with raffinose (RAF), α-GOS (hereinafter, referred to simply as GOS), fructooligosaccharide (FOS), xylooligosaccharide (XOS), that is, five groups were prepared, and mice were allowed to freely take these feeds for 8weeks. During this, an aqueous OVA solution (1 mg/0.2 mL) was orally administered forcibly everyday. After initiation of aministration of OVA, blood was collected from orbital venous plexus every one week, and centrifugally separated to obtain sera. Sear of one group (9/group) were pooled, and subjected to quantification of antigen-specific antibody titer by ELISA.

OC[C@H]1O[C@H](OC[C@H]2O[C@H](O[C@]3(CO)O[C@H](CO)[C@@H](O)[C@@H]3O)[C@H](O)[C@@H](O)[C@@H]2O)[C@H](O)[C@@H](O)[C@H]1O [RAF, raffinose]
effect on increase of IgE (overall conclusion) (8 weeks daily oral OVA): effect of delaying increase
effect on increase of IgG (overall conclusion) (8 weeks daily oral OVA): effect of delaying increase
antigen-specific IgG in blood (at 2 to 5 weeks): changed lower than the oligosaccharide no-addition feed group
antigen-specific IgE in blood (at 8 weeks): showed the same high value as that of the FOS group
antigen-specific IgE in blood (until 7 weeks): changed lower than the oligosaccharide no-addition feed group and the FOS feed group
